In PubChem BioAssay AID179 (DTP/NCI, 2004):
“And” between values parts separate entries of the source, which are not always exact repeats. Equal entries are not always repeated. The source made the active and inactive calls.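 How the source made its calls: active means compounds giving half or more protection of infected cells from virus-caused growth loss, again on retest; inactive means the rest.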

Tested on: CEM cells HIV-1 protection, formazan growth assay
Assay: NCI AIDS Antiviral Assay
Details: for IC50: measured here: growth of uninfected CEM cells
Procedure, shortened: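 Screen of anti-HIV-1 activity in human CEM cells using a formazan-based growth measurement at five drug concentrations. Hits with 50% or greater protection were repeated, and confirmation required reproducible complete protection.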

Structure (SMILES): CCCCCCCCCCCCCCCC(=O)OCC(C[As](=O)(O)O)OC(=O)CCCCCCCCCCCCCCC (stereo unspecified)
- EC50: > 38 µM
- IC50: > 38 µM

Structure (SMILES): Cc1cn(CCOCCOC(=O)NC(CCCN=C(N)N)C(=O)O)c(=O)[nH]c1=O (stereo unspecified)
- EC50: > 200 µM
- IC50: > 200 µM

Structure (SMILES): O=C1[C@@H]2C(c3ccccc3)=NO[C@@H]2C(=O)N1c1ccc(Cc2ccc(N3C(=O)[C@H]4C(c5ccccc5)=NO[C@H]4C3=O)cc2)cc1
- EC50: > 31.6 µM
- IC50: > 31.6 µM

Structure (SMILES): COc1cccc(-n2cccc2)c1
- EC50: > 200 µM
- IC50: > 200 µM

Structure (SMILES): O=c1c(-c2c(O)cc(O)c3c2O[C@H](c2ccc(O)cc2)[C@@H](O)C3)c(-c2ccc(O)cc2)oc2cc(O)cc(O)c12
- EC50: > 200 µM and 31.6 µM
- IC50: 75.9 µM and > 100 µM

Structure (SMILES): CSC1=Nc2ccccc2N(C)c2c1c(-c1ccccc1)nn2C
- EC50: > 200 µM
- IC50: 43.7 µM

Structure (SMILES): O=C(CCCN1CCC2(CC1)C(=O)NCN2c1ccccc1)c1ccc(F)cc1
- EC50: > 200 µM
- IC50: 13.5 µM

Structure (SMILES): CSc1nc(-c2ccc(Cl)cc2)c(C#N)c(=O)[nH]1
- outcome: inactive

Structure (SMILES): Cc1ccc(/C=C(\NC(=O)c2ccccc2)c2nc3ccccc3[nH]2)cc1
- EC50: > 74.1 µM
- IC50: > 74.1 µM

Structure (SMILES): CC1=C(C(=O)NCc2ccccc2)C(c2ccc(N(C)C)cc2)C(C(=O)NCc2ccccc2)=C(C)N1
- EC50: > 72.4 µM
- IC50: > 72.4 µM

Structure (SMILES): O=C(O)C1=C(C(=O)O)C2c3ccccc3C1c1ccccc12
- EC50: > 200 µM
- IC50: > 200 µM

Structure (SMILES): COC(=O)c1cc(C(=CCCN=[N+]=[N-])c2cc(Cl)c(OC)c(C(=O)OC)c2)cc(Cl)c1OC
- EC50: 33.1 µM
- IC50: 34.7 µM

Structure (SMILES): CC1COC(C)(C)P(=O)(c2ccccc2)C1 (stereo unspecified)
- EC50: > 1050 µM
- IC50: > 1050 µM

Structure (SMILES): CC1C(c2ccccc2O)c2cc3c(cc2OC1N1CCCC1)OCO3 (stereo unspecified)
- outcome: inactive

Structure (SMILES): O=Cc1c(-c2ccccc2)nc2sc(-c3ccc4c(c3)OCO4)nn12
- outcome: inactive

Structure (SMILES): Cc1cc(C)c2c(c1)CC2NC(=O)Cc1ccccc1 (stereo unspecified)
- EC50: > 26.9 µM
- IC50: > 26.9 µM

Structure (SMILES): CC(=O)NC(NNC(NC(C)=O)(c1ccccc1)c1ccccc1)(c1ccccc1)c1ccccc1
- EC50: > 200 µM
- IC50: > 200 µM

Structure (SMILES): C[N+]1(CC(=O)O)C2CCC1CC(O)C2 (stereo unspecified)
- EC50: > 200 µM
- IC50: > 200 µM

Structure (SMILES): OC1COC(c2ccccc2)OC1C1OC(c2ccccc2)OC2COC(c3ccccc3)OC21 (stereo unspecified)
- EC50: > 100 µM
- IC50: > 100 µM

Structure (SMILES): COc1ccc(C2(OC)Oc3ccccc3C(=O)C2(O)OC)cc1OC (stereo unspecified)
- EC50: > 200 µM
- IC50: 11.5 µM

Structure (SMILES): CCOC(=O)Cc1c(Cc2[nH]c(C(=O)OCc3ccccc3)c(CC(=O)OCC)c2CC(=O)OCC)[nH]c(C(=O)OCc2ccccc2)c1CC(=O)OCC
- EC50: > 5.01 µM
- IC50: > 5.01 µM

Structure (SMILES): CS(=O)(=O)N(CCC#N)c1ccc(/C=N/NC(=O)CC(=O)Nc2cccc(Cl)c2)cc1
- EC50: > 204 µM
- IC50: > 204 µM

Structure (SMILES): CC(=O)C(C(=O)CCSCCO)C(SCCO)c1ccc(Cl)c(Cl)c1 (stereo unspecified)
- EC50: > 200 µM
- IC50: 10.5 µM

Structure (SMILES): CC(C)(C)CC(C)(C)c1cc2c(O)c(c1)Cc1cc(C(C)(C)CC(C)(C)C)cc(c1O)Cc1cc(C(C)(C)CC(C)(C)C)cc(c1O)Cc1cc(C(C)(C)CC(C)(C)C)cc(c1O)Cc1cc(C(C)(C)CC(C)(C)C)cc(c1O)Cc1cc(C(C)(C)CC(C)(C)C)cc(c1O)C2
- EC50: > 7.24 µM
- IC50: > 7.24 µM

Structure (SMILES): CC1CC(OP(=O)(OCc2ccccc2)OCc2ccccc2)[C@@H](OCc2ccccc2)C(OCc2ccccc2)C1OCc1ccccc1 (stereo partly specified)
- EC50: > 100 µM
- IC50: > 100 µM

Structure (SMILES): C[C@]12CC[C@@H](O)C[C@H]1CC[C@@H]1[C@@H]2[C@@H](O)C[C@@]2(C)[C@H]1CC[C@]2(O)[C@@H](O)CO
- EC50: > 200 µM
- IC50: > 200 µM

Structure (SMILES): O=C(O)c1cccc[c]1[Sb](=[O])([OH])[OH]
- EC50: > 200 µM
- IC50: 87.1 µM

Structure (SMILES): O=c1cc(NNc2ccccc2F)[nH]c(=O)[nH]1
- EC50: > 200 µM
- IC50: 1.78 µM

Structure (SMILES): C[N+]1(Cc2ccco2)CCCCC1
- EC50: > 813 µM
- IC50: > 813 µM

Structure (SMILES): CS(=O)(=O)CCC1CCC(=O)O1 (stereo unspecified)
- EC50: > 200 µM
- IC50: 182 µM

Structure (SMILES): COC(=O)C1=C(\N2CCOCC2)CCCCC/C=C\1C(=O)OC
- EC50: > 776 µM
- IC50: 513 µM

Structure (SMILES): c1ccc(C2N3CCCCC3[C@@H]3c4[nH]c5ccccc5c4CCN23)cc1 (stereo partly specified)
- EC50: > 20.9 µM
- IC50: > 20.9 µM

Structure (SMILES): OC1(C(Sc2ccccc2)Sc2ccccc2)CCCCCC1
- outcome: inactive

Structure (SMILES): COc1ccc2c(c1OC)C(=O)OC2c1c2c(c(OC)c3c1OCO3)C(C1OC(=O)c3c1ccc(OC)c3OC)N(C)CC2 (stereo unspecified)
- outcome: inactive

Structure (SMILES): COc1ccccc1C=NC12CC3CC(CC(C3)C1)C2
- EC50: > 132 µM
- IC50: 110 µM

Structure (SMILES): Cc1ccc(OCC(=O)N2N=C(c3ccccc3)CC2(O)c2ccccc2)cc1 (stereo unspecified)
- EC50: > 25.7 µM
- IC50: > 25.7 µM

Structure (SMILES): CCOC(=O)CC/C(=N/Nc1ccc(Cl)cc1[N+](=O)[O-])C(=O)OCC
- EC50: > 200 µM
- IC50: > 200 µM

Structure (SMILES): COC(=O)C(=O)C(/C=N/C(=S)Nc1ccc(S(=O)(=O)Nc2nccs2)cc1)=C(\O)c1c(C)[nH]c2ccccc12
- EC50: > 200 µM
- IC50: 72.4 µM

Structure (SMILES): N#C/C(C(=S)NCc1ccccc1)=C(/N)N1CCCC1
- EC50: > 200 µM
- IC50: 148 µM

Structure (SMILES): N/C(=N/n1c(=S)[nH]c2ccccc2c1=O)Nn1c(=S)[nH]c2ccccc2c1=O
- EC50: > 200 µM
- IC50: 19.1 µM

Structure (SMILES): CN(C)C(=O)C(CC[N+]1(C)CCCC12CCCCC2)(c1ccccc1)c1ccccc1 (stereo unspecified)
- EC50: > 200 µM
- IC50: 74.1 µM

Structure (SMILES): CCOC(=O)c1cc2sc(NC(=O)c3ccco3)nc2o1
- EC50: 182 µM
- IC50: > 200 µM

Structure (SMILES): CCN(C(C)=O)c1cnc(/C=N/NC(N)=S)c2ccccc12
- EC50: > 200 µM
- IC50: 2.57 µM
